Data: the supplement of paper PMC10307832

Key:
Assay in all cases: relative viability (nuclei count vs DMSO), 5 days (fraction); higher = more cells survive
IA-LM = tested on: IA-LM
Method in brief: (§1)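 Lung cancer cell lines in 1536-well plates got either a single drug or a fixed anchor-drug dose together with five library-drug doses (not always all listed) in √10 steps, by pin tool, on the day after seeding. Nuclei were counted after 5 days, and relative viability is the treated-to-vehicle ratio of nuclei counts. Values are medians of duplicate plates.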

Calu-6 = tested on: Calu-6
Method in brief: as §1

EBC-1 = tested on: EBC-1
Method in brief: as §1

NCI-H1703 = tested on: NCI-H1703
Method in brief: as §1

NCI-H1355 = tested on: NCI-H1355
Method in brief: as §1

NCI-H520 = tested on: NCI-H520
Method in brief: as §1

LCLC-103H = tested on: LCLC-103H
Method in brief: as §1

COR-L 105 = tested on: COR-L 105
Method in brief: as §1

NCI-H1666 = tested on: NCI-H1666
Method in brief: as §1

NCI-H1299 = tested on: NCI-H1299
Method in brief: as §1

**Q.** How did the relative viability (IA-LM; first compound 0.005 µM) turn out when COc1cc2nccc(Oc3ccc(NC(=O)Nc4cc(C)on4)c(Cl)c3)c2cc1OC [Tivozanib] + CC(C)C[C@H](NC(=O)[C@H](Cc1ccccc1)NC(=O)c1cnccn1)B(O)O [Bortezomib] (partner 0.002 µM) was run?
**A.** 0.716

**Q.** What about the relative viability (IA-LM; first compound 0.01581 µM) of the same compound?
**A.** 0.812

**Q.** What about the relative viability (IA-LM; first compound 0.05 µM) of the same compound?
**A.** 0.821

**Q.** And the relative viability (IA-LM; first compound 0.1581 µM)?
**A.** 0.623

**Q.** And the relative viability (IA-LM; first compound 0.5 µM)?
**A.** 0.614

**Q.** And the relative viability (Calu-6; first compound 0.005 µM)?
**A.** 0.904

**Q.** And the relative viability (Calu-6; first compound 0.01581 µM)?
**A.** 1.08

**Q.** What about the relative viability (Calu-6; first compound 0.05 µM) of the same compound?
**A.** 0.986

**Q.** And the relative viability (Calu-6; first compound 0.1581 µM)?
**A.** 0.965

**Q.** What about the relative viability (Calu-6; first compound 0.5 µM) of the same compound?
**A.** 0.95

**Q.** What about the relative viability (EBC-1; first compound 0.005 µM) of the same compound?
**A.** 0.5

**Q.** What about the relative viability (EBC-1; first compound 0.01581 µM) of the same compound?
**A.** 0.561

**Q.** What about the relative viability (EBC-1; first compound 0.05 µM) of the same compound?
**A.** 0.624

**Q.** What about the relative viability (EBC-1; first compound 0.1581 µM) of the same compound?
**A.** 0.511

**Q.** What about the relative viability (EBC-1; first compound 0.5 µM) of the same compound?
**A.** 0.477

**Q.** And the relative viability (NCI-H1703; first compound 0.005 µM)?
**A.** 0.247

**Q.** What about the relative viability (NCI-H1703; first compound 0.01581 µM) of the same compound?
**A.** 0.186

**Q.** What about the relative viability (NCI-H1703; first compound 0.05 µM) of the same compound?
**A.** 0.154

**Q.** What about the relative viability (NCI-H1703; first compound 0.1581 µM) of the same compound?
**A.** 0.167

**Q.** And the relative viability (NCI-H1703; first compound 0.5 µM)?
**A.** 0.164

**Q.** And the relative viability (NCI-H1355; first compound 0.005 µM)?
**A.** 1.09

**Q.** And the relative viability (NCI-H1355; first compound 0.01581 µM)?
**A.** 1.17

**Q.** And the relative viability (NCI-H1355; first compound 0.05 µM)?
**A.** 1.26

**Q.** What about the relative viability (NCI-H1355; first compound 0.5 µM) of the same compound?
**A.** 1.14

**Q.** And the relative viability (NCI-H520; first compound 0.005 µM)?
**A.** 0.575

**Q.** What about the relative viability (NCI-H520; first compound 0.01581 µM) of the same compound?
**A.** 0.693

**Q.** What about the relative viability (NCI-H520; first compound 0.05 µM) of the same compound?
**A.** 0.645

**Q.** And the relative viability (NCI-H520; first compound 0.1581 µM)?
**A.** 0.519

**Q.** What about the relative viability (NCI-H520; first compound 0.5 µM) of the same compound?
**A.** 0.605

**Q.** What about the relative viability (LCLC-103H; first compound 0.005 µM) of the same compound?
**A.** 0.964

**Q.** What about the relative viability (LCLC-103H; first compound 0.01581 µM) of the same compound?
**A.** 1.01

**Q.** What about the relative viability (LCLC-103H; first compound 0.05 µM) of the same compound?
**A.** 1.21

**Q.** And the relative viability (LCLC-103H; first compound 0.1581 µM)?
**A.** 1.04

**Q.** What about the relative viability (LCLC-103H; first compound 0.5 µM) of the same compound?
**A.** 0.967

**Q.** What about the relative viability (COR-L 105; first compound 0.01581 µM) of the same compound?
**A.** 0.751

**Q.** And the relative viability (COR-L 105; first compound 0.05 µM)?
**A.** 0.759

**Q.** And the relative viability (COR-L 105; first compound 0.1581 µM)?
**A.** 0.702

**Q.** What about the relative viability (COR-L 105; first compound 0.5 µM) of the same compound?
**A.** 0.681

**Q.** And the relative viability (NCI-H1666; first compound 0.005 µM)?
**A.** 0.746

**Q.** And the relative viability (NCI-H1666; first compound 0.01581 µM)?
**A.** 0.792

**Q.** And the relative viability (NCI-H1666; first compound 0.05 µM)?
**A.** 0.835

**Q.** And the relative viability (NCI-H1666; first compound 0.1581 µM)?
**A.** 0.74

**Q.** What about the relative viability (NCI-H1666; first compound 0.5 µM) of the same compound?
**A.** 0.875

**Q.** And the relative viability (NCI-H1299; first compound 0.005 µM)?
**A.** 1.05

**Q.** And the relative viability (NCI-H1299; first compound 0.01581 µM)?
**A.** 1.02

**Q.** What about the relative viability (NCI-H1299; first compound 0.05 µM) of the same compound?
**A.** 1.01

**Q.** What about the relative viability (NCI-H1299; first compound 0.1581 µM) of the same compound?
**A.** 1.06

**Q.** What about the relative viability (NCI-H1299; first compound 0.5 µM) of the same compound?
**A.** 0.958

**Q.** Which results are given for Cc1sc2c(c1C)C(c1ccc(Cl)cc1)=N[C@@H](CC(=O)OC(C)(C)C)c1nnc(C)n1-2 [JQ1] + CC(C)C[C@H](NC(=O)[C@H](Cc1ccccc1)NC(=O)c1cnccn1)B(O)O [Bortezomib] (partner 0.002 µM)?
**A.** relative viability (IA-LM; first compound 0.04 µM): 0.643; relative viability (IA-LM; first compound 0.1265 µM): 0.428; relative viability (IA-LM; first compound 0.4 µM): 0.0917; relative viability (IA-LM; first compound 1.265 µM): 0.0837; relative viability (IA-LM; first compound 4 µM): 0.0676; relative viability (Calu-6; first compound 0.04 µM): 1.04; relative viability (Calu-6; first compound 0.1265 µM): 0.931; relative viability (Calu-6; first compound 0.4 µM): 0.815; relative viability (Calu-6; first compound 1.265 µM): 0.663; relative viability (Calu-6; first compound 4 µM): 0.391; relative viability (EBC-1; first compound 0.04 µM): 0.451; relative viability (EBC-1; first compound 0.1265 µM): 0.245; relative viability (EBC-1; first compound 0.4 µM): 0.219; relative viability (EBC-1; first compound 1.265 µM): 0.168; relative viability (EBC-1; first compound 4 µM): 0.19; relative viability (NCI-H1703; first compound 0.04 µM): 0.248; relative viability (NCI-H1703; first compound 0.1265 µM): 0.206; relative viability (NCI-H1703; first compound 0.4 µM): 0.19; relative viability (NCI-H1703; first compound 1.265 µM): 0.122; relative viability (NCI-H1703; first compound 4 µM): 0.102; relative viability (NCI-H1355; first compound 0.04 µM): 1.17; relative viability (NCI-H1355; first compound 0.1265 µM): 1.07; relative viability (NCI-H1355; first compound 0.4 µM): 1.05; relative viability (NCI-H1355; first compound 1.265 µM): 0.86; relative viability (NCI-H1355; first compound 4 µM): 0.669; relative viability (NCI-H520; first compound 0.04 µM): 0.527; relative viability (NCI-H520; first compound 0.1265 µM): 0.242; relative viability (NCI-H520; first compound 0.4 µM): 0.157; relative viability (NCI-H520; first compound 1.265 µM): 0.167; relative viability (NCI-H520; first compound 4 µM): 0.136; relative viability (LCLC-103H; first compound 0.04 µM): 1.04; relative viability (LCLC-103H; first compound 0.1265 µM): 1.01; relative viability (LCLC-103H; first compound 0.4 µM): 1.06; relative viability (LCLC-103H; first compound 1.265 µM): 0.557; relative viability (LCLC-103H; first compound 4 µM): 0.439; relative viability (COR-L 105; first compound 0.04 µM): 0.584; relative viability (COR-L 105; first compound 0.1265 µM): 0.348; relative viability (COR-L 105; first compound 0.4 µM): 0.3; relative viability (COR-L 105; first compound 1.265 µM): 0.292; relative viability (COR-L 105; first compound 4 µM): 0.342; relative viability (NCI-H1666; first compound 0.04 µM): 0.658; relative viability (NCI-H1666; first compound 0.1265 µM): 0.698; relative viability (NCI-H1666; first compound 0.4 µM): 0.543; relative viability (NCI-H1666; first compound 1.265 µM): 0.428; relative viability (NCI-H1666; first compound 4 µM): 0.443; relative viability (NCI-H1299; first compound 0.04 µM): 1.03; relative viability (NCI-H1299; first compound 0.1265 µM): 0.924; relative viability (NCI-H1299; first compound 0.4 µM): 0.963; relative viability (NCI-H1299; first compound 1.265 µM): 0.499; relative viability (NCI-H1299; first compound 4 µM): 0.363
